Experimental data published in patent publication US12137690B2, “Herbicidal mixtures comprising L-glufosinate and their use in cotton cultures” (BASF SE, priority 2017, dated 2024).

Key:
Assay in all cases: Post emergence treatment, herbicidal activity on scale 0 to 100, synergism by Colby
Format in all cases: in vivo
Details in all cases: scale 0-100
[1] = tested on: AVEFA (Avena fatua)
Procedure: (§1) The presence of a synergistic effect in terms of percent control, between two mixing partners (X and Y) can be calculated using the Colby equation (Colby, S. R., 1967, Calculating Synergistic and Antagonistic Responses in Herbicide Combinations, Weeds, 15, 21-22):
(§2) The analysis of synergism or antagonism between the mixtures or compositions was determined using Colby's equation.
(§3) The culture containers used were plastic flowerpots containing loamy sand with approximately 3.0% of humus as the substrate. The seeds of the test plants were sown separately for each species and/or resistant biotype. […] The containers were irrigated gently to promote germination and growth and subsequently covered with transparent plastic hoods until the plants had rooted. This cover caused uniform germination of the test plants, unless this had been impaired by the active ingredients. […] For this purpose, the test plants were either sown directly and grown in the same containers, or they were first grown separately as seedlings and transplanted into the test containers a few days prior to treatment. Depending on the species, the plants were kept at 10-25° C. or 20-35° C., respectively. The test period extended to 20 days after treatment. During this time, the plants were tended, and their response to the individual treatments was evaluated. The evaluation was carried out by using a scale from 0 to 100. 100 means no emergence of the plants or complete destruction of at least the above-ground parts, and 0 means no damage, or normal course of growth. Data shown are the mean of two replications.

[2] = tested on: SETVI (Setaria viridis)
Procedure: as §1, §2, §3

[3] = tested on: CYPIR (Cyperus iria)
Procedure: as §1, §2, §3

[4] = tested on: KCHSC (Kochia scoparia)
Procedure: as §1, §2, §3

[5] = tested on: ABUTH (Abutilon theophrasti)
Procedure: as §1, §2, §3

[6] = tested on: ERICA (Erigeron Canadensis, Conyza canadensis)
Procedure: as §1, §2, §3

[7] = tested on: CHEAL (Chenopodium album)
Procedure: as §1, §2, §3

[8] = tested on: ECHCG (Echinochloa crus-galli)
Procedure: as §1, §2, §3

[9] = 2,4-D as dimethylammonium salt 70 g ai/ha
[10] = 2,4-D as dimethylammonium salt 140 g ai/ha

**Q.** What does the source list for `CNC.O=C(O)COc1ccc(Cl)cc1Cl` [2,4-D as dimethylammonium salt, 2,4-D dimethylammonium salt]?
**A.** Herbicidal activity against AVEFA, Found [1, 9]: 0; Herbicidal activity against AVEFA, Found [1, 10]: 0; Herbicidal activity against SETVI, Found [2, 9]: 0; Herbicidal activity against SETVI, Found [2, 10]: 0

**Q.** How did the “Herbicidal activity against CYPIR, Found” value ([3]; Compound II-83 0.25 g ai/ha) turn out when `CCOC(=O)COc1ncccc1Oc1cc(-n2c(=O)cc(C(F)(F)F)n(C)c2=O)c(F)cc1Cl` [Compound II-83, ethyl [3-[2-chloro-4-fluoro-5-(1-methyl-6-trifluoromethyl-2,4-dioxo-1,2,3,4-tetrahydropyrimidin-3-yl)phenoxy]-2-pyridyloxy]acetate] was run?
**A.** 0

**Q.** For `CNC.COc1c(Cl)ccc(Cl)c1C(=O)O` [Dicamba as dimethylammonium salt, Dicamba dimethylammonium salt], which “Herbicidal activity against SETVI, Found” value ([2]; Dicamba as dimethylammonium salt 35 g ai/ha) is on record?
**A.** 0

**Q.** What about the “Herbicidal activity against SETVI, Found” value ([2]; Dicamba as dimethylammonium salt 70 g ai/ha) of the same compound?
**A.** 0

**Q.** What about the “Herbicidal activity against SETVI, Found” value ([2]; Dicamba as dimethylammonium salt 140 g ai/ha) of the same compound?
**A.** 30

**Q.** Which “Herbicidal activity against KCHSC, Found” value ([4]; Dimethenamid-P 500 g ai/ha) does the source give for `COC[C@H](C)N(C(=O)CCl)c1c(C)csc1C` [Dimethenamid-P, dimethenamid-P] here?
**A.** 0

**Q.** What about the “Herbicidal activity against KCHSC, Found” value ([4]; Dimethenamid-P 1000 g ai/ha) of the same compound?
**A.** 70

**Q.** Which “Herbicidal activity against AVEFA, Found” value ([1]; Diuron 125 g ai/ha) does the source give for `CN(C)C(=O)Nc1ccc(Cl)c(Cl)c1` [Diuron, diuron] here?
**A.** 20

**Q.** And the “Herbicidal activity against AVEFA, Found” value ([1]; Diuron 250 g ai/ha)?
**A.** 30

**Q.** With `CN(C)C(=O)Nc1cccc(C(F)(F)F)c1` [Fluometuron, fluometuron] as the compound, how does the “Herbicidal activity against ABUTH, Found” value ([5]; Fluometuron 125 g ai/ha) read?
**A.** 0

**Q.** And the “Herbicidal activity against ABUTH, Found” value ([5]; Fluometuron 250 g ai/ha)?
**A.** 20

**Q.** What does the source list for `CP(=O)(O)CC[C@H](N)C(=O)O` [L-Glufosinate, (2S)-2-amino-4-[hydroxy(methyl)phosphinoyl]butyric acid]?
**A.** Herbicidal activity against ERICA, Found ([6]; L-Glufosinate 75 g ai/ha): 90; Herbicidal activity against AVEFA, Found ([1]; L-Glufosinate 100 g ai/ha): 35; Herbicidal activity against AVEFA, Found ([1]; L-Glufosinate 300 g ai/ha): 20; Herbicidal activity against KCHSC, Found ([4]; L-Glufosinate 200 g ai/ha): 90; Herbicidal activity against SETVI, Found ([2]; Example 8, L-Glufosinate 100 g ai/ha): 30; Herbicidal activity against SETVI, Found ([2]; Example 9, L-Glufosinate 100 g ai/ha): 30; Herbicidal activity against SETVI, Found ([2]; L-Glufosinate 75 g ai/ha): 0; Herbicidal activity against SETVI, Found ([2]; L-Glufosinate 150 g ai/ha): 70; Herbicidal activity against CYPIR, Found ([3]; L-Glufosinate 200 g ai/ha): 0; Herbicidal activity against ABUTH, Found ([5]; L-Glufosinate 75 g ai/ha): 0; Herbicidal activity against CHEAL, Found ([7]; L-Glufosinate 100 g ai/ha): 0; Herbicidal activity against ECHCG, Found ([8]; Example 4, L-Glufosinate 200 g ai/ha): 0; Herbicidal activity against ECHCG, Found ([8]; Example 4, L-Glufosinate 400 g ai/ha): 65; Herbicidal activity against ECHCG, Found ([8]; Example 6, L-Glufosinate 200 g ai/ha): 0; Herbicidal activity against ECHCG, Found ([8]; Example 6, L-Glufosinate 400 g ai/ha): 65; Herbicidal activity against ECHCG, Found ([8]; Example 12, L-Glufosinate 100 g ai/ha): 0; Herbicidal activity against ECHCG, Found ([8]; Example 12, L-Glufosinate 200 g ai/ha): 0; Herbicidal activity against ECHCG, Found ([8]; Example 13, L-Glufosinate 100 g ai/ha): 0; Herbicidal activity against ECHCG, Found ([8]; Example 13, L-Glufosinate 200 g ai/ha): 0; Herbicidal activity against ECHCG, Found ([8]; Example 14, L-Glufosinate 100 g ai/ha): 0; Herbicidal activity against ECHCG, Found ([8]; Example 14, L-Glufosinate 200 g ai/ha): 0

**Q.** With `CCc1cccc(C)c1N(C(=O)CCl)[C@@H](C)COC` [S-Metolachlor, S-metolachlor] as the compound, how does the “Herbicidal activity against CHEAL, Found” value ([7]; S-Metolachlor 500 g ai/ha) read?
**A.** 20

**Q.** And the “Herbicidal activity against CHEAL, Found” value ([7]; S-Metolachlor 1000 g ai/ha)?
**A.** 75

**Q.** Which “Herbicidal activity against ECHCG, Found” value ([8]; Saflufenacil 0.5 g ai/ha) does the source give for `CC(C)N(C)S(=O)(=O)NC(=O)c1cc(-n2c(=O)cc(C(F)(F)F)n(C)c2=O)c(F)cc1Cl` [Saflufenacil, saflufenacil] here?
**A.** 0

**Q.** With `Cc1nn(-c2cc(NS(C)(=O)=O)c(Cl)cc2Cl)c(=O)n1C(F)F` [Sulfentrazone, sulfentrazone] as the compound, how does the “Herbicidal activity against ERICA, Found” value ([6]; Sulfentrazone 1.25 g ai/ha) read?
**A.** 0

**Q.** What about the “Herbicidal activity against ERICA, Found” value ([6]; Sulfentrazone 2.5 g ai/ha) of the same compound?
**A.** 0

**Q.** For `CS(=O)(=O)c1ccc(C(=O)C2C(=O)CCCC2=O)c(Cl)c1COCC(F)(F)F` [Tembotrione, tembotrione], which “Herbicidal activity against ECHCG, Found” value ([8]; Tembotrione 0.5 g ai/ha) is on record?
**A.** 0

**Q.** How did the “Herbicidal activity against SETVI, Found” value ([2]; Thidiazuron 50 g ai/ha) turn out when `O=C(Nc1ccccc1)Nc1cnns1` [Thidiazuron] was run?
**A.** 0

**Q.** How did the “Herbicidal activity against ECHCG, Found” value ([8]; Topramezone 1 g ai/ha) turn out when `Cc1c(C(=O)c2cnn(C)c2O)ccc(S(C)(=O)=O)c1C1=NOCC1` [Topramezone, topramezone] was run?
**A.** 0

**Q.** Which “Herbicidal activity against ECHCG, Found” value ([8]; Trifludimoxazin 0.25 g ai/ha) does the source give for `C#CCN1C(=O)C(F)(F)Oc2cc(F)c(-n3c(=O)n(C)c(=S)n(C)c3=O)cc21` [Trifludimoxazin, trifludimoxazin] here?
**A.** 10

**Q.** bicyclopyrone was tested. Which “Herbicidal activity against ECHCG, Found” value ([8]; Bicyclopyrone 2 g ai/ha) did it give?
**A.** 0
